Columns and labels:
[1] = test system: three different cancer cell lines; assay: Radiation killing of cancer cell lines; assay type: cell-based
Excerpt: (§1) It is also observed that three different cancer cell lines were not protected from radiation killing by YEL002, which indicates a use in radiation oncology or chemotherapy where the tumor can still be killed by the radiation, or chemotherapy but YEL002 protects the rest of the body from radiation or chemotherapy damage, and inhibits secondary carcinogenesis.

Solubility of the powder = assay type: physicochemical; conditions: off-white powder
Protocol: The compound takes the appearance of an off-white powder and is fat soluble. One takes an eighth teaspoon or about 0.5 g dissolved in a couple of teaspoons of oil. In an exemplary embodiment, it is dissolved in grape seed or any other appropriate oil and taken twice a day, once in the morning and once in the evening. It is easy to use and has almost no taste.

Covid virus = assay type: in vivo; conditions: compared with without YEL002
[2] = PHQ-9 assessment of a patient with recalcitrant depression; assay type: in vivo, human
Protocol: If they work at all, improvements take at least 4 weeks and may increase patient weight. In this patient's assessment using a standard PHQ-9 form, the patient was assessed before and after treatment with YEL002. The PHQ-9 form assigns a numerical value corresponding to the level of depression, meaning a higher level means increased depression values. In this patient, before treatment, the values was in 3 different instances 6, 9 and 15 with designation of “very difficult” and “extremely difficult” and they cried 3 times during 30 minutes of our interview and said they hate the world. Before the test indicates mild depression to moderately severe depression. […] Since there is no lower designation this indicates no depression. This is also called snapping out of depression, which was a technical term in the past because it was not observed before now.

[3] = Side effects and blood thinning; assay type: in vivo
Protocol: Thus, if nose bleeding occurs at that dose when blowing one's nose, one should reduce the dose to half and nose bleeding will stop within about 12 hours or less. Once the flue or sneezing is gone one may increase the dose again.
as §1

[4] = Case studies and patient testimonials; assay type: in vivo, human
human keratinocytes = assay: Proteomics study of protein induction; assay type: cell-based
Excerpt: In terms of mechanism of action in a proteomics study, the chemical was capable of inducing 244 different proteins in human keratinocytes, which comprised anti-inflammatory proteins, DNA repair proteins, and 9 neuroprotective proteins. It is known that turtles at the Galapagos Islands live 150 or more years without cancer and have multiple copies of DNA repair genes and anti-inflammatory genes. The compound boosts the expression of these genes in mammals. Since it induces DNA repair and is anti-inflammatory, it may be possible to prevent and cure many diseases and extend the life.
A direct effect of YEL002 on the autonomic or sympathetic nervous system, the flight or fight response, which can explain all the effects that we find.

Effects on pets (cats) = assay type: in vivo; conditions: cats after treatment
Protocol: Effects on pets. My cats, Susie and Celine were the sweetest cats before I started to treat them. But after treatment they are now even sweeter, cuddlier and more attached to me, and sleep 2 hours longer per day. I call them lap cats now like the dog pendant. They lost loofiness, shyness to new visitors, quietly sit next to each other and licking each other or me and just want to sit close to me or on my lap and be petted. Before after 5 to 10 minutes of petting they just left and did something else. Now they stay for hours and the only reason for them to leave is when I stop petting them. And they are even better at play and jump exactly, landing where they intend to, don't bump into things and catch the toys the first time every time.

irradiated mice = assay: Radiation mitigation in mice irradiated with an LD100; assay type: in vivo
[5] = Clinical trial on psychological, psychiatric and memory loss endpoints; assay type: in vivo, human
Excerpt: 7 less argumentative, 10 less angry or aggressive. 8 experienced better quality sleep. 8 needed less sleep and 5 became nicer. It gets rid of addictions and reduces symptoms of depression and Alzheimer's disease.

lymphoma = assay: Lymphoma incidence in mice (National Institute of Health experiment); assay type: in vivo; conditions: radiation exposure caused 90% to develop lymphoma without treatment
Protocol: In another experiment at the National Institute of Health, in other mice after radiation exposure which caused 90% of them to develop lymphoma, there was a reduction of the lymphoma incidence to 40% and the spontaneous frequency was reduced from 10-20% down to 0%. […] This was observed after treating mice right after birth, if humans are treated later in life it is possible that only 10 or 5 years are added and probably more for DNA repair deficient diseases like ataxia telangiectasia (ATM) which is still very substantial, especially, since it treats and reduces the likelihood of many diseases.

ATM-deficient mice = assay: Lifespan of ATM-deficient mice injected weekly; assay type: in vivo; conditions: ATM-deficient mice injected every week during most of their lifespans
Excerpt: It is speculated that this is because the primary screen applied was against radiation-induced toxicity as well as genotoxicity which causes cancer. Researchers involved in other labs were screening only against radiation-induced toxicity and thereby cells with genotoxicity survive and cause even more cancer and late effects of which surviving mice died. In our experiments, however, a screen against radiation induced toxicity as well as genetic instability made sure that the surviving cells also had no genetic instability which otherwise would have led to an increase in cancer and other diseases. In the experiment, ATM-deficient mice injected every week with YEL002 during most of their lifespans lived 33% longer than without injections.

[6] = heavy smoker, one week after treatment
[7] = subject on chemotherapy, one week on YEL002

Compound: COc1ccc2cc(-c3nc4ccc(C)cn4c3NCc3ccco3)c(=O)[nH]c2c1 [YEL002]
- protection of cancer cell lines from radiation killing [1]: not protected
- solubility (Solubility of the powder): fat soluble
- clearance of Covid virus (Covid virus): cleared faster
- PHQ-9 value after treatment ([2]; after one week on YEL002, the following two weeks, before treatment 6, 9 and 15): 3
- PHQ-9 difficulty designation after treatment ([2]; before treatment very difficult and extremely difficult): somewhat difficult
- recalcitrant depression outcome ([2]; person with depression for 20 years, within one week): completely cured
- blood-thinning; nose bleeding at the dose ([3]; about 1 gram per day, nose bleeding stops within about 12 hours or less at half dose): blood-thinning properties
- side effects ([3]; in vivo): no side effects
- memory of patient with Alzheimer's disease ([4]; after 4 weeks treatment): improved
- cholesterol ([4]; after two days of treatment): normal
- symptoms of coughing and diarrhea ([4]; case study, used for eight weeks): reduced symptoms of coughing and diarrhea
- allergic attacks such as sneezing and runny nose ([4]; dissolved in oil, nose spray 2-4 times a day): completely prevented
- hair loss [4, 6]: completely stopped
- smoker's legs oozing lymph liquid [4, 6]: completely healed
- astigmatism fixed ([4]; in only 4 weeks): 1
- eye-sight deficiency fixed ([4]; in only 4 weeks): 2 diopters
- coughing and wheezing symptoms post-chemotherapy ([4]; one hour after treatment): completely alleviated
- blood ([4]; patient testimonial): thinner
- major arguments with spouse ([4]; patient with long COVID19 and diabetes, 5-10 before treatment): 0-1 per day
- memory of another person ([4]; remembers where they left their car): much improved
- vomiting under chemotherapy [4, 7]: completely stopped
- weight gained [4, 7]: 2 kg
- levels of liver damage ([4]; twice elevated for 25 years, after two days of treatment): normal and below the cutoff
- alcohol addiction ([4]; two alcoholics): completely cured
- periodontics or receding gums ([4]; user study): healed
- number of different proteins induced (human keratinocytes; human keratinocytes, anti-inflammatory, DNA repair and neuroprotective proteins): 244 proteins
- number of neuroprotective proteins/functions induced (human keratinocytes; proteomics): 9
- cats sleep longer (Effects on pets (cats)): 2 hours per day
- survival of irradiated mice (irradiated mice; LD100 radiation, IP injection 24 hours after radiation and another four doses in 24 hours intervals, without it 100% died after 10 to 15 days): 100%
- life span of surviving irradiated mice (irradiated mice; many of the surviving mice, normal life span): more than 2 years
- became nicer [5]: 5 people
- experienced better quality sleep [5]: 8 people
- felt more energetic [5]: 10 people
- less angry or aggressive [5]: 10 people
- less argumentative [5]: 7 people
- less combative [5]: 7 people
- less tired [5]: 5 people
- needed less sleep [5]: 8 people
- lymphoma incidence after radiation exposure (lymphoma): 40%
- lived longer than without injections (ATM-deficient mice): 33%
